Results on one molecule are retold here after patent publication US6231887A, “Pharmaceutical composition for acidic lipophilic compounds in a form of a self-emulsifying formulation” (priority 1998, dated 2001).

The nature of data set [1]: Aqueous solubility in buffer. In kind it is physicochemical. To be noted: buffer of pH 6.5 (close to the pH of the intestine), free acid.
Data set [2] concerns retroviral protease. Particulars: qualitative statement; compounds disclosed in WO 95/30670; cited from earlier work.

For orientation: solubility means the concentration that dissolves in the medium under given conditions. A lower solubility goes with little dissolved substance. As for `CCC[C@@]1(CCc2ccccc2)CC(O)=C([C@H](CC)c2cccc(NS(=O)(=O)c3ccc(C(F)(F)F)cn3)c2)C(=O)O1` [compound of formula I], the solubility in data set [1] was ~1 µg/mL. The “effectiveness as an inhibitor of retroviral protease” value in data set [2] is given as “especially effective”.
